These results are taken from patent US20250163047A1, “HETEROCYCLIC COMPOUNDS, COMPOSITIONS THEREOF, AND METHODS OF TREATMENT THEREWITH” (BeiGene, Ltd., priority 2022, published 2025).

pIC50: −log10 of the molar value.

For one assay, the target named is T1, Cbl (aa49-434) (Homo sapiens, UniProt P22681).
T1 construct: Cbl (aa49-434, in-house); made in house
T1 sequence (P22681 49-434): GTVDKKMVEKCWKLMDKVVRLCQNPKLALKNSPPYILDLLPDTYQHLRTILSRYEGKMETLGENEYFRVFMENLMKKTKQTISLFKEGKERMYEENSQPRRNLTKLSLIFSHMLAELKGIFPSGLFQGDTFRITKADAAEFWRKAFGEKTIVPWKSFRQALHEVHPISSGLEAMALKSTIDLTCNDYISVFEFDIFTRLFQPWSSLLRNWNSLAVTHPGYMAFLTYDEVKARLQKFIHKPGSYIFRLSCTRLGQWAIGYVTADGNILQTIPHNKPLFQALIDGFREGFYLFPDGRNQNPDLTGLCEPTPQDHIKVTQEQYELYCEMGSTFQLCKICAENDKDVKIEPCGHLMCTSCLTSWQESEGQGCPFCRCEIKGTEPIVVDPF
Kind of assay: Co-expressed Cbl with BirA biochemical assay (CBL/E2-Ub binding, HTRF). The conditions noted are these: 0.6 nM Cbl co-expressed with BirA, read-out: co-express CBL/E2-Ub-binding assay IC50. From the text: (§1) The assay in the absence of a Cbl-b/Cbl inhibitor, where phosphorylation of Cbl-b/Cbl by the Src kinase allows UbcH5B-Ub to bind to Cbl-b/Cbl and brings the Bodipy-Fluorescein tagged ubiquitin in proximity to the streptavidin-terbium bound to the N-terminal biotinylated Avi-tagged Cbl-b/Cbl. […] The lack of a FRET signal indicates Cbl-b/Cbl is inhibited by the Cbl-b/Cbl inhibitor.
(In TR-FRET formats the signal depends on donor and acceptor labels being close together.)

A further assay deals with T2, Cbl-b (aa36-427) (Homo sapiens, UniProt Q13191).
T2 construct: Cbl-b (aa36-427, in-house); made in house
Kind of assay: Co-expressed Cbl-b with BirA biochemical assay (CBLB/E2-Ub binding, HTRF). The conditions noted are these: 0.6 nM Cbl-b co-expressed with BirA, HTRF; read-out: co-express CBLB/E2-Ub-binding assay IC50.
Text: as §1

T2 sequence (Q13191 36-427): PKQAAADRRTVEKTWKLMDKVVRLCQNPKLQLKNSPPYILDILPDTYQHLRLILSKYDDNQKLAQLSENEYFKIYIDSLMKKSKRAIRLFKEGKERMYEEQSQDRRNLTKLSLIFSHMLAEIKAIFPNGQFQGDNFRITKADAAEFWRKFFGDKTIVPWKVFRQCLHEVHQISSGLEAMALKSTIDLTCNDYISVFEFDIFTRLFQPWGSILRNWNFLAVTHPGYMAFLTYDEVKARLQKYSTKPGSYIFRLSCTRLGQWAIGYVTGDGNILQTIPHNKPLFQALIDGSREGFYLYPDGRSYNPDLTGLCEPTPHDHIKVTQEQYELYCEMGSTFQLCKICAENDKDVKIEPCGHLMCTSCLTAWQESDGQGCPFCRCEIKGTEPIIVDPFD

With `C[C@H](NCc1cc(C(=O)Nc2cccc([C@]3(c4nncn4C)C[C@@H](C)C3)c2)c2ncc(Cl)n2c1)C1CCC1` [Compound A69, 3-chloro-6-((((S)-1-cyclobutylethyl)amino)methyl)-N-(3-((1s,3R)-3-methyl-1-(4-methyl-4H-1,2,4-triazol-3-yl)cyclobutyl)phenyl)imidazo[1,2-a]pyridine-8-carboxamide], the pIC50 on Cbl (aa49-434) was 8.77; at Cbl-b (aa36-427), 9.10.

For `CC(C)CNCc1cc(C(=O)Nc2cccc([C@]3(c4nncn4C)C[C@@H](CC#N)C3)c2)nc2cc[nH]c12` [Compound B29, N-(3-((1s, 3s)-3-(cyanomethyl)-1-(4-methyl-4H-1,2,4-triazol-3-yl)cyclobutyl)phenyl)-7-((isobutylamino)methyl)-1H-pyrrolo[3,2-b]pyridine-5-carboxamide], the pIC50 on Cbl (aa49-434) was 8.64; at Cbl-b (aa36-427), 8.92.

For the molecule `Cn1ccc2c(CNCC3CCC3)cc(C(=O)Nc3cccc([C@]4(c5nncn5C)C[C@@H](C)C4)c3)nc21` [Compound B45, 4-(((cyclobutylmethyl)amino)methyl)-1-methyl-N-(3-((1s, 3s)-3-methyl-1-(4-methyl-4H-1,2,4-triazol-3-yl)cyclobutyl)phenyl)-1H-pyrrolo[2,3-b]pyridine-6-carboxamide], the pIC50 at Cbl (aa49-434) is 7.78; on Cbl-b (aa36-427), 8.77.

Turning to `C[C@H](NCc1cc(C(=O)Nc2cccc([C@]3(c4nncn4C)C[C@@H](C)C3)c2)c2ncc(Cl)n2c1)C1CC1` [Compound A58, 3-chloro-6-((((S)-1-cyclopropylethyl)amino)methyl)-N-(3-((1s,3R)-3-methyl-1-(4-methyl-4H-1,2,4-triazol-3-yl)cyclobutyl)phenyl)imidazo[1,2-a]pyridine-8-carboxamide], the pIC50 at Cbl (aa49-434) was 8.59; at Cbl-b (aa36-427), 9.15.

On to `Cn1cnnc1[C@]1(c2cccc(NC(=O)c3cc(CNC4(C)CC4)c4[nH]cc(Cl)c4n3)c2)C[C@H](CC#N)C1` [Compound B24, 3-chloro-N-(3-((1s, 3s)-3-(cyanomethyl)-1-(4-methyl-4H-1,2,4-triazol-3-yl)cyclobutyl)phenyl)-7-(((1-methylcyclopropyl)amino)methyl)-1H-pyrrolo[3,2-b]pyridine-5-carboxamide], for which the pIC50 on Cbl (aa49-434) was 7.77; at Cbl-b (aa36-427) it was 9.05.

On to `CC(C)CNCc1cc(C(=O)Nc2cncc([C@]3(c4nncn4C)C[C@@H](C)C3)c2)c2nccn2c1` [Compound A78, 6-((isobutylamino)methyl)-N-(5-((1s, 3s)-3-methyl-1-(4-methyl-4H-1,2,4-triazol-3-yl)cyclobutyl)pyridin-3-yl)imidazo[1,2-a]pyridine-8-carboxamide], for which the results for the pIC50 on Cbl (aa49-434) and on Cbl-b (aa36-427) were 8.64 and 8.92, respectively.

With `C[C@H](NCc1cc(C(=O)Nc2cccc([C@]3(c4nncn4C)C[C@@H](CC#N)C3)c2)nc2c1OCC2(C)C)C1CC1` [Compound C26, N-(3-((1s,3R)-3-(cyanomethyl)-1-(4-methyl-4H-1,2,4-triazol-3-yl)cyclobutyl)phenyl)-7-((((S)-1-cyclopropylethyl)amino)methyl)-3,3-dimethyl-2,3-dihydrofuro[3,2-b]pyridine-5-carboxamide], the pIC50 on Cbl (aa49-434) is 7.60; at Cbl-b (aa36-427) it was 8.64.

With `Cn1cnnc1[C@]1(c2cccc(NC(=O)c3cc(CNCC4(C)CCC4)cn4c(Cl)cnc34)c2)C[C@H](CC#N)C1` [Compound A35, 3-chloro-N-(3-((1s, 3s)-3-(cyanomethyl)-1-(4-methyl-4H-1,2,4-triazol-3-yl)cyclobutyl)phenyl)-6-((((1-methylcyclobutyl)methyl)amino)methyl)imidazo[1,2-a]pyridine-8-carboxamide], the pIC50 was 7.89 at Cbl (aa49-434) and 8.66 on Cbl-b (aa36-427).

Take `Cc1cnc2c(C(=O)Nc3cncc([C@]4(c5nncn5C)C[C@@H](C)C4)c3)cc(CN[C@@H](C)C3CC3)cn12` [Compound A64, 6-((((S)-1-cyclopropylethyl)amino)methyl)-3-methyl-N-(5-((1s,3R)-3-methyl-1-(4-methyl-4H-1,2,4-triazol-3-yl)cyclobutyl)pyridin-3-yl)imidazo[1,2-a]pyridine-8-carboxamide]: the values for the pIC50 on Cbl (aa49-434) and on Cbl-b (aa36-427) were 7.59 and 8.66, respectively.

Consider `C[C@H](NCc1cc(C(=O)Nc2cncc([C@]3(c4nncn4C)C[C@@H](C)C3)c2)c2ncc(F)n2c1)C1CC1` [Compound A72, 6-({[(1S)-1-cyclopropylethyl]amino}methyl)-3-fluoro-N-{5-[(1r, 3s)-3-methyl-1-(4-methyl-1,2,4-triazol-3-yl)cyclobutyl]pyridin-3-yl}imidazo[1,2-a]pyridine-8-carboxamide], for which the figures for the pIC50 on Cbl (aa49-434) and on Cbl-b (aa36-427) were 9.22 and 9.40, respectively.

Turning to `Cn1cnnc1[C@]1(c2cccc(NC(=O)c3cc(CNC4(C)CC4)cn4c(F)cnc34)c2)C[C@H](CC#N)C1` [Compound A17, N-(3-((1s, 3s)-3-(cyanomethyl)-1-(4-methyl-4H-1,2,4-triazol-3-yl)cyclobutyl)phenyl)-3-fluoro-6-(((1-methylcyclopropyl)amino)methyl)imidazo[1,2-a]pyridine-8-carboxamide], the pIC50 was 7.68 at Cbl (aa49-434) and 9.10 at Cbl-b (aa36-427).

Regarding `C[C@H]1CCCN(Cc2cc(C(=O)Nc3cccc([C@]4(c5nncn5C)C[C@@H](CC#N)C4)c3)c3ncc(F)n3c2)C1` [Compound A12, 3-fluoro-6-{[(3S)-3-methylpiperidin-1-yl]methyl}-N-{3-[(1s, 3s)-3-(cyanomethyl)-1-(4-methyl-1,2,4-triazol-3-yl)cyclobutyl]phenyl}imidazo[1,2-a]pyridine-8-carboxamide], the pIC50 is 7.49 on Cbl (aa49-434) and 8.41 on Cbl-b (aa36-427).

As to `Cn1cnnc1[C@]1(c2cccc(NC(=O)c3cc(CNC4(C)CC4)cn4c(F)cnc34)c2)C[C@H](C)C1` [Compound A45, 3-fluoro-N-(3-((1s, 3s)-3-methyl-1-(4-methyl-4H-1,2,4-triazol-3-yl)cyclobutyl)phenyl)-6-(((1-methylcyclopropyl)amino)methyl)imidazo[1,2-a]pyridine-8-carboxamide], the pIC50 is 8.46 on Cbl (aa49-434) and 8.92 on Cbl-b (aa36-427).

Regarding `Cn1cnnc1[C@]1(c2cccc(NC(=O)c3cc(CNCC4CCC4)cn4c(Cl)cnc34)c2)C[C@H](C)C1` [Compound A57, 3-chloro-6-(((cyclobutylmethyl)amino)methyl)-N-(3-((1s, 3s)-3-methyl-1-(4-methyl-4H-1,2,4-triazol-3-yl)cyclobutyl)phenyl)imidazo[1,2-a]pyridine-8-carboxamide], the pIC50 is 8.74 on Cbl (aa49-434) and 9.22 on Cbl-b (aa36-427).

Consider `Cn1cnnc1[C@]1(c2cccc(NC(=O)c3cc(CNC4(C)CC4)cc4c(F)cnn34)c2)C[C@H](CC#N)C1` [Compound A94, N-(3-((1s, 3s)-3-(cyanomethyl)-1-(4-methyl-4H-1,2,4-triazol-3-yl)cyclobutyl)phenyl)-3-fluoro-5-(((1-methylcyclopropyl)amino)methyl)pyrazolo[1,5-a]pyridine-7-carboxamide], for which the results for the pIC50 at Cbl (aa49-434) and on Cbl-b (aa36-427) were 8.23 and 9.30, respectively.

As for `CC(C)CNCc1cc(C(=O)Nc2cncc([C@]3(c4nncn4C)C[C@@H](C)C3)c2)nc2c1CCC2(F)F` [Compound C53, 7,7-difluoro-4-{[(2-methylpropyl)amino]methyl}-N-{5-[(1r, 3s)-3-methyl-1-(4-methyl-1,2,4-triazol-3-yl)cyclobutyl]pyridin-3-yl}-5H,6H-cyclopenta[b]pyridine-2-carboxamide], the results for the pIC50 on Cbl (aa49-434) and at Cbl-b (aa36-427) were 7.80 and 8.43, respectively.
